Assay results published in ChEMBL document CHEMBL1130886, “Serine derived NK1 antagonists. 1: The effect of modifications to the serine substituents” (Bioorg Med Chem Lett, 1998).

Molecular target: Substance-P receptor (Homo sapiens, UniProt P25103)
Assay: Ability to displace [125I]-substance P from hNK1 receptor in chinese hamster ovarian (CHO) cells
Format: cell-based

Chain of Substance-P receptor (P25103 whole entry): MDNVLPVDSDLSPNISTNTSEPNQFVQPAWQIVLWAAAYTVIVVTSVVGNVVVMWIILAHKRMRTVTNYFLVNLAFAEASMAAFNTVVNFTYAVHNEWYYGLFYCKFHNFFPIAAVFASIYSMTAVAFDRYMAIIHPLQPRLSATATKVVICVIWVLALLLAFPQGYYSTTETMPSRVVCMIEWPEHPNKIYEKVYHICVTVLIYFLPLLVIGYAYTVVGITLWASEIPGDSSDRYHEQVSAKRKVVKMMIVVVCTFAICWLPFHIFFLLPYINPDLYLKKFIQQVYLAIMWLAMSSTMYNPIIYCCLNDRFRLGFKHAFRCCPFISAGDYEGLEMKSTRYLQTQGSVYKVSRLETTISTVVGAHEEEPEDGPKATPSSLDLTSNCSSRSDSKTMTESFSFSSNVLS

SMILES	IC50
CS(=O)(=O)N1CC2(CCN(C(=O)C(COCc3ccccc3)NCc3cccc([N+](=O)[O-])c3)CC2)c2ccccc21 (centres undefined)	120 nM
CS(=O)(=O)N1CC2(CCN(C(=O)C(COCc3ccccc3)NCc3ccccc3Cl)CC2)c2ccccc21 (centres undefined)	542 nM
CS(=O)(=O)N1CC2(CCN(C(=O)C(COCc3ccccc3)NCc3cccc(F)c3)CC2)c2ccccc21 (centres undefined)	157 nM
CS(=O)(=O)N1CC2(CCN(C(=O)C(N)COCc3ccccc3)CC2)c2ccccc21 (centres undefined)	2000 nM
CS(=O)(=O)N1CC2(CCN(C(=O)C(COCc3ccccc3)NCc3ccc(Cl)cc3)CC2)c2ccccc21 (centres undefined)	27 nM
CN(C)c1ccc(CNC(COCc2ccccc2)C(=O)N2CCC3(CC2)CN(S(C)(=O)=O)c2ccccc23)cc1 (centres undefined)	33 nM
CS(=O)(=O)N1CC2(CCN(C(=O)[C@H](COCc3cccc(Cl)c3)NCc3ccc(Cl)c(Cl)c3)CC2)c2ccccc21	11 nM
CS(=O)(=O)N1CC2(CCN(C(=O)C(CCCc3ccc(Cl)c(Cl)c3)NCc3ccccc3)CC2)c2ccccc21 (centres undefined)	3.3 nM
COc1ccccc1CNC(COCc1ccccc1)C(=O)N1CCC2(CC1)CN(S(C)(=O)=O)c1ccccc12 (centres undefined)	163 nM
CS(=O)(=O)N1CC2(CCN(C(=O)[C@H](COCc3ccccc3Cl)NCc3ccc(Cl)c(Cl)c3)CC2)c2ccccc21	34 nM
CS(=O)(=O)N1CC2(CCN(C(=O)C(COCc3ccccc3)NCc3cccc(Cl)c3Cl)CC2)c2ccccc21 (centres undefined)	153 nM
CS(=O)(=O)N1CC2(CCN(C[C@H](COCc3ccc(Cl)c(Cl)c3)NCc3ccccc3)CC2)c2ccccc21	170 nM
CS(=O)(=O)N1CC2(CCN(C(=O)[C@H](COCc3ccc(Cl)cc3)NCc3ccccc3)CC2)c2ccccc21	6.6 nM
CS(=O)(=O)N1CC2(CCN(C(=O)[C@H](CSCc3ccc(Cl)c(Cl)c3)NCc3ccccc3)CC2)c2ccccc21	13 nM
CS(=O)(=O)N1CC2(CCN(C(=O)[C@@H](COCc3ccccc3)NCc3ccc(Cl)c(Cl)c3)CC2)c2ccccc21	42 nM
CS(=O)(=O)N1CC2(CCN(C(=O)C(COCc3ccccc3)NCc3cccc(Br)c3)CC2)c2ccccc21 (centres undefined)	60 nM
CS(=O)(=O)N1CC2(CCN(C(=O)C(COCc3ccccc3)NCc3cccc(C#N)c3)CC2)c2ccccc21 (centres undefined)	152 nM
CS(=O)(=O)N1CC2(CCN(C(=O)[C@H](COCc3ccc(Cl)cc3)NCc3ccc(Cl)c(Cl)c3)CC2)c2ccccc21	23 nM
CS(=O)(=O)N1CC2(CCN(C(=O)C(CCc3ccc(Cl)c(Cl)c3)NCc3ccccc3)CC2)c2ccccc21 (centres undefined)	455 nM
CS(=O)(=O)N1CC2(CCN(C(=O)[C@H](COCc3ccccc3Cl)NCc3ccccc3)CC2)c2ccccc21	36 nM
CS(=O)(=O)N1CC2(CCN(C(=O)[C@H](COCc3ccc(Cl)c(Cl)c3)NCc3ccc(Cl)c(Cl)c3)CC2)c2ccccc21	1.7 nM
CS(=O)(=O)N1CC2(CCN(C(=O)C(COCc3ccccc3)NCc3c(Cl)cccc3Cl)CC2)c2ccccc21 (centres undefined)	895 nM
CS(=O)(=O)N1CC2(CCN(C(=O)C(COCc3ccccc3)NC(=O)c3ccc(Cl)c(Cl)c3)CC2)c2ccccc21 (centres undefined)	260 nM
CS(=O)(=O)N1CC2(CCN(C(=O)[C@H](COCc3cccc(Cl)c3)NCc3ccccc3)CC2)c2ccccc21	7.7 nM

Results, then the compound that gave them:

IC50	SMILES
71 nM	COc1cccc(CNC(COCc2ccccc2)C(=O)N2CCC3(CC2)CN(S(C)(=O)=O)c2ccccc23)c1 (centres undefined)
54 nM	CN(Cc1ccc(Cl)c(Cl)c1)CC(NCc1ccccc1)C(=O)N1CCC2(CC1)CN(S(C)(=O)=O)c1ccccc12 (centres undefined)
100 nM	CS(=O)(=O)N1CC2(CCN(C(=O)C(COCc3ccccc3)NCc3ccc(Cl)cc3Cl)CC2)c2ccccc21 (centres undefined)
80 nM	CS(=O)(=O)N1CC2(CCN(C(=O)C(COCc3ccccc3)NCc3ccccc3)CC2)c2ccccc21 (centres undefined)
58 nM	CS(=O)(=O)N1CC2(CCN(C(=O)C(COCc3ccccc3)NCc3cccc(Cl)c3)CC2)c2ccccc21 (centres undefined)
1300 nM	CS(=O)(=O)N1CC2(CCN(C(=O)[C@H](COCc3cc(C(F)(F)F)cc(C(F)(F)F)c3)NC(=O)c3ccc(Cl)c(Cl)c3)CC2)c2ccccc21
55 nM	Cc1cccc(CNC(COCc2ccccc2)C(=O)N2CCC3(CC2)CN(S(C)(=O)=O)c2ccccc23)c1 (centres undefined)
57 nM	COc1ccc(CNC(COCc2ccccc2)C(=O)N2CCC3(CC2)CN(S(C)(=O)=O)c2ccccc23)cc1 (centres undefined)
12 nM	CS(=O)(=O)N1CC2(CCN(C(=O)C(COCc3ccccc3)NCc3ccc(Cl)c(Cl)c3)CC2)c2ccccc21 (centres undefined)
43 nM	CS(=O)(=O)N1CC2(CCN(C(=O)C(COCc3ccccc3)NC(=O)Cc3ccc(Cl)c(Cl)c3)CC2)c2ccccc21 (centres undefined)
79 nM	CS(=O)(=O)N1CC2(CCN(C(=O)C(COCc3ccccc3)NCc3cc(Cl)cc(Cl)c3)CC2)c2ccccc21 (centres undefined)
18 nM	CS(=O)(=O)N1CC2(CCN(C(=O)[C@H](COCc3ccccc3)NCc3ccc(Cl)c(Cl)c3)CC2)c2ccccc21
63 nM	CS(=O)(=O)N1CC2(CCN(C(=O)[C@H](CS(=O)(=O)Cc3ccc(Cl)c(Cl)c3)NCc3ccccc3)CC2)c2ccccc21
88 nM	CS(=O)(=O)N1CC2(CCN(C(=O)C(COCc3ccccc3)NS(=O)(=O)c3ccc(Cl)c(Cl)c3)CC2)c2ccccc21 (centres undefined)
24 nM	CS(=O)(=O)N1CC2(CCN(C(=O)C(CNCc3ccc(Cl)c(Cl)c3)NCc3ccccc3)CC2)c2ccccc21 (centres undefined)
